Results: US20260062408A1, “PRODRUGS OF S[…]” (SYNEX HOLDINGS BV, priority 2022, published 2026)

How the values were obtained:
[1] = Psychedelic effect in volunteers experienced with ALD-52; format: in vivo, humans; settings: human volunteers; for Substitution for ALD-52 / Emax: administered as tartrate salt; for Emax: relative to ALD-52 = 1, read-out: Maximum psychedelic effect produced (ALD-52 = 1); for Duration: duration of effect relative to ALD-52
Procedure: Compounds of the invention were tested on volunteers who were experienced with the use of the related compound ALD-52. For each compound, a solution was prepared by dissolving the tartrate salt in deionized water to produce a concentration either of 1 mg/ml of the tartrate salt, or calculated to be equivalent to 1 mg/ml of the free base. This was either administered directly, or was prepared into standardised dosage units by pipetting 0.1 ml of solution onto a square of perforated blotter paper, which was placed overnight in a desiccator and allowed to evaporate to dryness.

[2] = Preventative treatment of chronic cluster headache attacks in volunteers, eight weeks; format: in vivo, humans; settings: for average self-rated severity of cluster headache attacks: baseline 8.78/10; for average cluster headache attacks per day: baseline 3.44 attacks per day
Source text: Eighteen volunteers were recruited through cluster headache support groups in the Netherlands. Age range of volunteers was between 23 to 67 (average 45.17), 14 males and 4 females. All volunteers had previous experience using psychedelic drugs such as LSD or psilocybin to alleviate cluster headache attacks, as well as prescribed medications including verapamil, prednisone, sumatriptan, topiramate and indomethacin. Volunteers were asked to discontinue use of prescribed medications for five days preceding the commencement of the study and for the eight-week duration.
Participants were supplied standardised 3.0 mg dosage units of SYN-L-017 as the tartrate salt (equivalent to 2.58 mg of SYN-L-017 freebase), measured into capsules for oral administration. These were tested as a preventative for chronic cluster headache attacks. One 3 mg capsule was administered intermittently in a pattern of one day on, two days off for a period of eight weeks (using the protocol described in Karst et al. (Karst M, et al. The non-hallucinogen 2-bromo-lysergic acid diethylamide as preventative treatment for cluster headache: An open, non-randomized case series. Cephalalgia 2010; 30(9):1140-1144. DOI: 10.1177/0333102410363490)) and the volunteers were asked to keep a diary to track the frequency and self-rated severity of cluster headache attacks on a scale of 1-10.

5-HT2A receptor = target: T1, 5-HT2A receptor (Mus musculus, UniProt P35363); settings: 1 mg/kg i.p., 30 min, same assay conditions; data from Halberstadt et al. 2019; cited from earlier work
T1 construct: tissue Jackson Laboratories; host or cells: living male C57BL/6J mice (whole animal, brain)
T1 sequence (P35363 whole entry): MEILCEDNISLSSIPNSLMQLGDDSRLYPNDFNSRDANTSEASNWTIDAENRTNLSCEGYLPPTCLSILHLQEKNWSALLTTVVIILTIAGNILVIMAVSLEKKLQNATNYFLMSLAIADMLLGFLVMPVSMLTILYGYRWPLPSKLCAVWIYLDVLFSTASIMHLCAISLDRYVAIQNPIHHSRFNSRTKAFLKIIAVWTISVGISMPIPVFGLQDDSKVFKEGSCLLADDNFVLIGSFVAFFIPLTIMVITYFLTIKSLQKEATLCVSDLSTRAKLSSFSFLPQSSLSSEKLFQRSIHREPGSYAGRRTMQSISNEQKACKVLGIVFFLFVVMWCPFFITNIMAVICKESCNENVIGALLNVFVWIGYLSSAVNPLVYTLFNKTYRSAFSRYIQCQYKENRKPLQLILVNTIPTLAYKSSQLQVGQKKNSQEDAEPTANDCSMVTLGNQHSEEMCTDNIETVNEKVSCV

Structure (SMILES): CCCCCCCCCCCC(=O)n1cc2c3c(cccc31)C1=C[C@@H](C(=O)N(CC)CC)CN(C)[C@@H]1C2 [SYN-L-004, 1-dodecanoyl-lysergic acid diethylamide]
- Substitution for ALD-52 [1]: Partial
- Emax [1]: 25%
- Duration [1]: Slightly longer

Structure (SMILES): C=CCN1C[C@H](C(=O)N(C)C(C)C)C=C2c3cccc4c3c(cn4C(=O)CC)C[C@H]21 [SYN-L-073, 1-propionyl-6-allyl-6-nor-lysergic acid methylisopropylamide]
- Substitution for ALD-52 [1]: Partial
- Emax [1]: 50%

Structure (SMILES): CCCCCCCC/C=C\CCCCCCCC(=O)n1cc2c3c(cccc31)C1=C[C@@H](C(=O)N(CC)CC)CN(C)[C@@H]1C2 [SYN-L-043, 1-oleoyl-lyserqic acid diethylamide]
- Substitution for ALD-52 [1]: Partial
- Emax [1]: 25%

Structure (SMILES): CCN(CC)C(=O)[C@@H]1C=C2c3cccc4c3c(cn4C(=O)c3ccccc3C)C[C@H]2N(C)C1 [SYN-L-008, 1-(o-toluoyl)-lysergic acid diethylamide]
- Substitution for ALD-52 [1]: Partial
- Emax [1]: 25%

Structure (SMILES): CCN(CC)C(=O)[C@@H]1C=C2c3cccc4c3c(cn4C(=O)C(C)(C)C)C[C@H]2N(C)C1 [SYN-L-024, 1-pivaloyl-lysergic acid diethylamide]
- Substitution for ALD-52 [1]: Partial
- Emax [1]: 25%
- Duration [1]: Shorter duration

Structure (SMILES): CCCCCCCCCCCCCCCCCC(=O)n1cc2c3c(cccc31)C1=C[C@@H](C(=O)N(CC)CC)CN(C)[C@@H]1C2 [SYN-L-042, 1-stearoyl-lyserqic acid diethylamide]
- Substitution for ALD-52 [1]: Partial
- Emax [1]: 25%

Structure (SMILES): CCC(=O)n1cc2c3c(cccc31)C1=C[C@@H](C(=O)N(CC)C3CC3)CN(C)[C@@H]1C2 [SYN-L-197, 1-propionyl-lyserqic acid ethylcyclopropylamide]
- Substitution for ALD-52 [1]: Partial
- Emax [1]: 50%

Structure (SMILES): C=C(C)CN1C[C@H](C(=O)N(CC)CC)C=C2c3cccc4c3c(cn4C(=O)CC)C[C@H]21 [SYN-L-203, 1-propionyl-6-methallyl-6-nor-lysergic acid diethylamide]
- Substitution for ALD-52 [1]: Partial
- Emax [1]: 25%

Structure (SMILES): CC(=O)n1cc2c3c(cccc31)C1=C[C@@H](C(=O)N3CCOCC3)CN(C)[C@@H]1C2 [SYN-L-196, 1-acetyl-lysergic acid morpholide]
- Substitution for ALD-52 [1]: Partial
- Emax [1]: 50%

Structure (SMILES): CCC(=O)n1c(Br)c2c3c(cccc31)C1=C[C@@H](C(=O)N(CC)CC)CN(C)[C@@H]1C2 [SYN-L-017, 1-propionyl-2-bromo-lysergic acid diethylamide]
- Substitution for ALD-52 [1]: No substitution
- Emax [1]: 0%
- average self-rated severity of cluster headache attacks ([2]; after four weeks, 3 mg tartrate capsule oral, one day on, two days off): 4.46 /10
- average cluster headache attacks per day ([2]; after four weeks): 2.13 attacks per day
- side effects consistent with psychedelic effects ([2]; eight-week study): No side effects consistent with psychedelic effects were reported
- volunteers reporting no side effects of any significance ([2]; eight-week study): 75%
- volunteers reporting side effects including dizziness, nausea, fatigue, difficulty concentrating and insomnia ([2]; eight-week study): 25%
- volunteers who thought the drug more effective than their normally used prescribed medication ([2]; eight-week study): 83.33%
- perceived severity of side effects ([2]; eight-week study, none rated moderate or severe): mild
- average cluster headache attacks per day ([2]; end of the eight weeks): 1.78 attacks per day
- average self-rated severity of cluster headache attacks ([2]; end of the eight weeks): 3.72 /10
- volunteers reporting improvement of cluster headache symptoms ([2]; overall, eight-week study): 91.67%

Structure (SMILES): CCN(CC)C(=O)[C@@H]1C=C2c3cccc4c3c(cn4S(=O)(=O)C3CC3)C[C@H]2N(C)C1 [SYN-L-014, 1-cyclopropanesulfonyl-lysergic acid diethylamide]
- Substitution for ALD-52 [1]: No substitution
- Emax [1]: 0%

Structure (SMILES): CCN(CC)C(=O)[C@@H]1C=C2c3cccc4c3c(cn4C(C)=O)C[C@H]2N(C)C1 [ALD-52, 1-acetyl-d-lysergic acid diethylamide]
- average HTR count (5-HT2A receptor): 16.6
